In patent publication US8148391B2 (Cephalon, Inc., priority 2006, dated 2012):
Read-outs that look alike come from different tables or passages of the source. One block for each molecule: values may come before it.

Tests used:
[1] = biological target: T1, baculovirus-expressed ALK (Homo sapiens, UniProt Q9UM73); assay: ALK Kinase Assay (ELISA-type, time-resolved fluorescence); format: biochemical
T1 construct: host or cells: baculovirus expression system
Summary of the method: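 Plates coated with phospholipase C-γ substrate (10 μg/mL in TBS); reaction started with 30 ng/ml ALK and run 15 min at 37° C. Phosphorylated substrate detected with Eu-N1-labeled PT66 antibody. IC50 from sigmoidal variable-slope fit of percent inhibition vs log concentration.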

[2] = biological target: T2, c-Met (cytoplasmic domain) (Homo sapiens, UniProt P08581); assay: c-Met Kinase Assay (same methods as for ALK, with modifications); format: biochemical
T2 construct: 10 ng/mL c-Met (cytoplasmic domain, Invitrogen Corporation #PV3143); purchased Invitrogen Corporation PV3143
Summary of the method: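 Europium-labeled PT66 antibody (Eu-N1) detects substrate phosphorylation on wells coated with phospholipase C-γ at 10 μg/mL. The kinase, the cytoplasmic domain of c-Met at 10 ng/mL, starts the reaction, which proceeds 15 minutes at 37° C.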

[3] = ALK kinase inhibition, 1 μM ATP (Km level), read-out: ALK Activity
[4] = c-Met kinase inhibition, 1 μM ATP (Km level), read-out: cMet Activity
[5] = 1 μM ATP (Km level), read-out: ALK Activity (ALK Kinase Inhibition, IC50)
[6] = 1 μM ATP (Km level), read-out: cMet Activity (c-Met Kinase Inhibition, IC50)
[7] = 1 μM ATP (Km level), 30 ng/ml ALK, 37° C., 15 minutes, read-out: ALK Activity (ALK kinase inhibition, IC50 class)
[8] = 1 μM ATP (Km level), 10 ng/mL c-Met, read-out: cMet Activity (c-Met kinase inhibition, IC50 class)
[9] = ALK kinase inhibition, 1 μM ATP, read-out: ALK Activity
[10] = c-Met kinase inhibition, 1 μM ATP, read-out: cMet Activity

T1 sequence (Q9UM73 19-1620): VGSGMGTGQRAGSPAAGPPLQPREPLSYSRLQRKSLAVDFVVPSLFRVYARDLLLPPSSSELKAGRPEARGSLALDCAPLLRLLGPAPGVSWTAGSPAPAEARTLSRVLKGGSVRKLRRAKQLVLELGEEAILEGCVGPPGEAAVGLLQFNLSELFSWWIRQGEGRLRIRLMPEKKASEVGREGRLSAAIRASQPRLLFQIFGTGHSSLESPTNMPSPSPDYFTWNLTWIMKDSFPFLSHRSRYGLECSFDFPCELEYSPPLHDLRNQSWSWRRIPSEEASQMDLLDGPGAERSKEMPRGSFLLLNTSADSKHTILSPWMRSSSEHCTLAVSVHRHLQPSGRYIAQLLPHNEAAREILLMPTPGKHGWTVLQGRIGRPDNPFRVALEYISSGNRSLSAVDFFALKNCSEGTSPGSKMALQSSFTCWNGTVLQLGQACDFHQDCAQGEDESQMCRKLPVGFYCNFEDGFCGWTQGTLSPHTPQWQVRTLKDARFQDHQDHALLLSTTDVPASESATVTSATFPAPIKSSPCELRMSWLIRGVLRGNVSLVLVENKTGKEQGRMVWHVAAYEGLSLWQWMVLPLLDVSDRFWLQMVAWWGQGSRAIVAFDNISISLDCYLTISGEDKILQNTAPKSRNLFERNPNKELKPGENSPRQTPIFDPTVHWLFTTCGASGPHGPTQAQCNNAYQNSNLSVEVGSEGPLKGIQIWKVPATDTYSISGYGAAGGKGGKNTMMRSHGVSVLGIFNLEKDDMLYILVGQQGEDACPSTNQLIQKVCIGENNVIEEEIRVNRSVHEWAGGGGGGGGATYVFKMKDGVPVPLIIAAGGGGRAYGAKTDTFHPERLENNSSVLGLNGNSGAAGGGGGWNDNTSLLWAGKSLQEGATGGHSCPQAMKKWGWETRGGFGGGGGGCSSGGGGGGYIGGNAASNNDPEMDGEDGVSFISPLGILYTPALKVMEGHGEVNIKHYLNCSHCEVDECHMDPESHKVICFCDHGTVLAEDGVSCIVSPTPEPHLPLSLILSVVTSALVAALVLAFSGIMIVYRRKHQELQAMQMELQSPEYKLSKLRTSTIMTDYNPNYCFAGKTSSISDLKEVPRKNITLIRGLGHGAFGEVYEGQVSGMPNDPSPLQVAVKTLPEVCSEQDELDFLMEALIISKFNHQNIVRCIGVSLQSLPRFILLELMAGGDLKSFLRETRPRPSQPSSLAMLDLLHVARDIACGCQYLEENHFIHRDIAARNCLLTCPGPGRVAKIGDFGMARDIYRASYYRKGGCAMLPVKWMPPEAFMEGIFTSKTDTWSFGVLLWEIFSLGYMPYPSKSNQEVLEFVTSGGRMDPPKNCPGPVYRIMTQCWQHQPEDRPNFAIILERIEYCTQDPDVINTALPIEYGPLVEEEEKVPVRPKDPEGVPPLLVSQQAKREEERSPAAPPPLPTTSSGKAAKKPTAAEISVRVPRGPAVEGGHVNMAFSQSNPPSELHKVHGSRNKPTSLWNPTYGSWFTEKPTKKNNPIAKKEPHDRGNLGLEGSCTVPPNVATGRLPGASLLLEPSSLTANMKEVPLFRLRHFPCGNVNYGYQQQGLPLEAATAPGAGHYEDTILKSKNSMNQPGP
T2 sequence (P08581 956-1390 limits assumed): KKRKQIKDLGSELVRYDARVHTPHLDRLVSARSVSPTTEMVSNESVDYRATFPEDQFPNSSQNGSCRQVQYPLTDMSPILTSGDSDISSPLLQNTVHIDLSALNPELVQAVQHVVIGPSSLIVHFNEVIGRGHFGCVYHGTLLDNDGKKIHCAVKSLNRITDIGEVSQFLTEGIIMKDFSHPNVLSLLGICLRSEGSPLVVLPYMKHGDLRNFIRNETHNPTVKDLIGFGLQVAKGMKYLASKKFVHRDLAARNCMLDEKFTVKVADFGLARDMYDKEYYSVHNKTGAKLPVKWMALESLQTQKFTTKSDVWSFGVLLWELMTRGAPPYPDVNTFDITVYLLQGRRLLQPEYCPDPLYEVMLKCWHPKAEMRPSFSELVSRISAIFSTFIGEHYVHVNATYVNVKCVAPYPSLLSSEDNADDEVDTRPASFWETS

- IC50 [1, 3]: < 100 nM
- IC50 [2, 4]: 1000 to 10000 nM
SMILES: CNC(=O)c1ccccc1Nc1nc(Nc2ccc(OC)c3c2NC(=O)CCC3)ncc1Cl [Example 18, 2-[5-Chloro-2-(6-methoxy-2-oxo-2,3,4,5-tetrahydro-1H-benzo[b]azepin-9-ylamino)-pyrimidin-4-ylamino]-N-methyl-benzamide]

- IC50 [1, 5]: 100 to 1000 nM
- IC50 [2, 6]: 1000 to 10000 nM
SMILES: CN1C(=O)CCCc2cc(Nc3ncc(Cl)c(Nc4ccccc4-c4nc(C(F)(F)F)c[nH]4)n3)ccc21 [Example 1013, 7-{5-Chloro-4-[2-(4-trifluoromethyl-1H-imidazol-2-yl)-phenylamino]-pyrimidin-2-ylamino}-1-methyl-1,3,4,5-tetrahydro-benzo[b]azepin-2-one]

- IC50 [1, 7]: < 100 nM
- IC50 [2, 8]: < 100 nM
SMILES: CC1(C)CCC(=O)Nc2ccc(Nc3ncc(Cl)c(Nc4c(F)cccc4C(=O)NCC#N)n3)cc21 [Example 1044, 2-[5-Chloro-2-(5,5-dimethyl-2-oxo-2,3,4,5-tetrahydro-1H-benzo[b]azepin-7-ylamino)-pyrimidin-4-ylamino]-N-cyanomethyl-3-fluoro-benzamide]

- IC50 [1, 7]: < 100 nM
- IC50 [2, 8]: < 100 nM
SMILES: CCN1C(=O)CCC(C)(C)c2ccc(Nc3ncc(Cl)c(Nc4ccccc4S(C)(=O)=O)n3)cc21 [Example 1248, 8-[5-Chloro-4-(2-methanesulfonyl-phenylamino)-pyrimidin-2-ylamino]-1-ethyl-5,5-dimethyl-1,3,4,5-tetrahydro-1-benzazepin-2-one]

- IC50 [1, 9]: 100 to 1000 nM
- IC50 [2, 10]: 100 to 1000 nM
SMILES: CNC(=O)c1cccc(F)c1Nc1nc(Nc2ccc3c(c2)NC(=O)CN(C(C)=O)C3)ncc1Cl [Example 1848, 2-[2-(4-Acetyl-2-oxo-2,3,4,5-tetrahydro-1H-benzo[e][1,4]diazepin-8-ylamino)-5-chloro-pyrimidin-4-ylamino]-3-fluoro-N-methyl-benzamide]

- IC50 [1, 9]: 100 to 1000 nM
- IC50 [2, 10]: 100 to 1000 nM
SMILES: C#CCNC(=O)c1cccc(F)c1Nc1nc(Nc2ccc3c(c2)OCCCN3C(=O)OC2CCCN(C)C2)ncc1Cl (centres unmarked) [Example 1439, 3-[5-Chloro-4-(2-fluoro-6-prop-2-ynylcarbamoyl-phenylamino)-pyrimidin-2-ylamino]-7,8-dihydro-6H-5-oxa-9-aza-benzocycloheptene-9-carboxylic acid 1-methyl-piperidin-3-yl ester]

- IC50 [1, 9]: < 100 nM
- IC50 [2, 10]: < 100 nM
SMILES: COCCN1CCc2ccc(Nc3ncc(Cl)c(Nc4ccccc4S(=O)(=O)N4CCCC4)n3)cc2CC1 [Example 1730, 5-Chloro-N*2*-[3-(2-methoxy-ethyl)-2,3,4,5-tetrahydro-1H-benzo[d]azepin-7-yl]-N*4*-[2-(pyrrolidine-1-sulfonyl)-phenyl]-pyrimidine-2,4-diamine]

- IC50 [1, 5]: < 100 nM
- IC50 [2, 6]: > 10000 nM
SMILES: COc1cc(N2CCOCC2)ccc1Nc1nc(Nc2cccc3c2OCCCC3)ncc1Cl [Example 862, 5-Chloro-N*4*-(2-methoxy-4-morpholin-4-yl-phenyl)-N*2*-(2,3,4,5-tetrahydrobenzo[b]oxepin-9-yl)pyrimidine-2,4-diamine]

- IC50 [1, 3]: 1000 to 10000 nM
- IC50 [2, 4]: 1000 to 10000 nM
SMILES: CNS(=O)(=O)c1ccccc1Nc1nc(Nc2cccc3c2C(=O)NCCN3)ncc1Cl [Example 171, 2-[5-Chloro-2-(5-oxo-2,3,4,5-tetrahydro-1H-benzo[e][1,4]diazepin-6-ylamino)pyrimidin-4-ylamino]-N-methyl-benzenesulfonamide]

- IC50 [1, 5]: < 100 nM
- IC50 [2, 6]: 100 to 1000 nM
SMILES: COCCN1CCc2ccc(Nc3ncc(Cl)c(Nc4ccc(N5CCN(C(C)C)CC5)c5c4C(=O)N(C)C5)n3)cc2CC1 [Example 950, 7-{5-Chloro-2-[3-(2-methoxy-ethyl)-2,3,4,5-tetrahydro-1H-3-benzazepin-7-ylamino]-pyrimidin-4-ylamino}-4-(4-isopropyl-piperazin-1-yl)-2-methyl-2,3-dihydro-isoindol-1-one]

- IC50 [1, 5]: < 100 nM
- IC50 [2, 6]: > 10000 nM
SMILES: COc1cc2c(cc1Nc1ncc(Cl)c(N[C@H]3[C@@H](C(N)=O)[C@@H]4C=C[C@H]3C4)n1)N(C)C(=O)CNC2 [Example 743, (1S,2S3,R,4R)-3-[5-Chloro-2-(7-methoxy-1-methyl-2-oxo-2,3,4,5-tetrahydro-1H-benzo[e][1,4]diazepin-8-ylamino)-pyrimidin-4-ylamino]-bicyclo[2.2.1]hept-5-ene-2-carboxylic acid amide]

- IC50 [1, 9]: 1000 to 10000 nM
- IC50 [2, 10]: < 100 nM
SMILES: CCN1C(=O)CN(C(C)=O)Cc2ccc(Nc3ncc(Cl)c(Nc4c(F)cccc4C(=O)NC)n3)cc21 [Example 1851, 2-[2-(4-Acetyl-1-ethyl-2-oxo-2,3,4,5-tetrahydro-1H-benzo[e][1,4]diazepin-8-ylamino)-5-chloro-pyrimidin-4-ylamino]-3-fluoro-N-methyl-benzamide]

- IC50 [1, 7]: < 100 nM
- IC50 [2, 8]: 1000 to 10000 nM
SMILES: CCCCNC(=O)c1ccccc1Nc1nc(Nc2ccc3c(c2)C(C)(C)CCC(=O)N3)ncc1Cl [Example 1027, N-Butyl-2-[5-chloro-2-(5,5-dimethyl-2-oxo-2,3,4,5-tetrahydro-1H-benzo[b]azepin-7-ylamino)-pyrimidin-4-ylamino]-benzamide]

- IC50 [1, 3]: < 100 nM
- IC50 [2, 4]: 100 to 1000 nM
SMILES: CCN1CC2OC(C1)c1cc(Nc3ncc(Cl)c(Nc4ccccc4C(=O)NC)n3)ccc12 (centres unmarked) [Example 61, 2-[5-Chloro-2-(10-ethyl-12-oxa-10-aza-tricyclo[6.3.1.0*2,7*]dodeca-2,4,6-trien-4-ylamino)-pyrimidin-4-ylamino]-N-methyl-benzamide]

- IC50 [1, 5]: < 100 nM
- IC50 [2, 6]: > 10000 nM
SMILES: COc1cc2c(cc1Nc1ncc(Cl)c(Nc3ccc(F)cc3S(=O)(=O)N(C)C)n1)CCN(CC(=O)N(C)C)CC2 [Example 831, 2-{7-[5-Chloro-4-(2-dimethylsulfamoyl-4-fluoro-phenylamino)-pyrimidin-2-ylamino]-8-methoxy-1,2,4,5-tetrahydro-benzo[d]azepin-3-yl}-N,N-dimethyl-acetamide]

- IC50 [1, 5]: 100 to 1000 nM
- IC50 [2, 6]: > 10000 nM
SMILES: COc1ccc(Nc2ncc(Cl)c(Nc3ccccc3S(=O)(=O)C(C)C)n2)c2c1CCCC(N1CCOCC1)C2 (centres unmarked) [Example 946, 5-Chloro-N(2)-(4-methoxy-8-morpholin-4-yl-6,7,8,9-tetrahydro-5H-benzocyclohepten-1-yl)-N(4)-[2-(propane-2-sulfonyl)-phenyl]-pyrimidine-2,4-diamine]

- IC50 [1, 9]: 100 to 1000 nM
- IC50 [2, 10]: < 100 nM
SMILES: CNC(=O)c1sccc1Nc1nc(Nc2ccc3c(c2)NC(=O)CN(C(C)=O)C3)ncc1Cl [Example 1849, 3-[2-(4-Acetyl-2-oxo-2,3,4,5-tetrahydro-1H-benzo[e][1,4]diazepin-8-ylamino)-5-chloro-pyrimidin-4-ylamino]-thiophene-2-carboxylic acid methyl amide]

- IC50 [1, 5]: < 100 nM
- IC50 [2, 6]: < 100 nM
SMILES: CNC(=O)c1cccc(F)c1Nc1nc(Nc2ccc3c(c2)CCC(N2CCN(C)CC2)CC3)ncc1Cl (racemic) [Example 899, 2-{5-Chloro-2-[7-(4-methyl-piperazin-1-yl)-6,7,8,9-tetrahydro-5H-benzocyclohepten-2-ylamino]-pyrimidin-4-ylamino}-3-fluoro-N-methyl-benzamide]

- IC50 [1, 7]: < 100 nM
- IC50 [2, 8]: 100 to 1000 nM
SMILES: CCCCNC(=O)c1ccccc1Nc1nc(Nc2ccc3c(c2)CCN(CCOC)CC3)ncc1Cl [Example 1028, N-Butyl-2-{5-chloro-2-[3-(2-methoxy-ethyl)-2,3,4,5-tetrahydro-1H-benzo[d]azepin-7-ylamino]-pyrimidin-4-ylamino}-benzamide]
